This is an account of results in BindingDB's records for doi:10.1016/j.ejmech.2023.115404 (Southwest Jiaotong University, 2023).

Each structure is given as a SMILES string.

This test deals with Dual leucine zipper kinase (MAP3K12) (Homo sapiens). In words: Binding affinity to DLK (unknown origin) assessed as inhibition constant.

On to `CC(C)n1nc(Nc2cc(C(F)(F)F)ccn2)cc1C1CCNCC1`, for which the inhibition constant (Ki) was 145 nM.

Take `CC(=O)N1CCC(c2cc(Nc3cc(C(F)(F)F)ccn3)nc(N3CCC(F)(F)C3)n2)CC1`: the Ki is 33 nM.
